According to patent publication US20040049072A1, “RXR modulators with improved pharmacologic profile” (priority 1999, published 2004):
“Also recorded” adds a separate entry of the source. Like-named read-outs stand apart in the source and are kept apart here.

What was measured:
RXRα = target: T1, RXRα (Homo sapiens, UniProt P19793); experiment: RXRα binding (competition with tritiated LGD1069)
T1 sequence (P19793 1-462): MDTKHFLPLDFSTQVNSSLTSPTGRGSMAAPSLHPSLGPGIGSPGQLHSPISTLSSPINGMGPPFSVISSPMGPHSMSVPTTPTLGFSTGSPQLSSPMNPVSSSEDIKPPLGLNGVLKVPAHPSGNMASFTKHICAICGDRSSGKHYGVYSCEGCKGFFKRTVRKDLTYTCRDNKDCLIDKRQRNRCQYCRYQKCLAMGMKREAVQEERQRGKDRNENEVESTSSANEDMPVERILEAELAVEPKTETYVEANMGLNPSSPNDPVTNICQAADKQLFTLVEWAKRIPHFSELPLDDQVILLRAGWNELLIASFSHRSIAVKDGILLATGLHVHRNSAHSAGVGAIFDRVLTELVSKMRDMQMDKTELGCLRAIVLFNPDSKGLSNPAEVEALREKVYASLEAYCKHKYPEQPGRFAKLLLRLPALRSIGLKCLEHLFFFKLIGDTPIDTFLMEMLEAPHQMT
Procedure: Non-specific binding was defined as that binding remaining in the presence of 500 nM of the appropriate unlabelled compound. At the end of the incubation period, bound ligand was separated from free. The amount of bound tritiated retinoid was determined by liquid scintillation counting of an aliquot (700 μL) of the supernatant fluid or the hydroxylapatite pellet.
After correcting for non-specific binding, IC50 values were determined. […] The IC50 value was determined graphically from a log-logit plot of the data. The Ki values were determined by application of the Cheng-Prussof equation to the IC50 values, the labeled ligand concentration and the Kd of the labeled ligand.

[1] = target: T2, (Homo sapiens, UniProt P19793); experiment: RXR homodimer co-transfection assay in CV-1 cells; type: cell-based; settings: CV-1
T2 sequence (P19793 1-462): T1 sequence (P19793 1-462)
Excerpt: (§1) In the co-transfection assay, cloned cDNA for one or more IRs (e.g., human RARα, RXRα, or PPARγ), alone or in combination (i.e. for heterodimer assays) under the control of a constitutive promoter (e.g., the SV 40, RSV or CMV promoter) is introduced by transfection (a procedure to introduce exogenous genes into cells) into a background cell substantially devoid of endogenous IRs. These introduced gene(s) direct the recipient cells to make the IR protein(s) of interest. A further gene is also introduced (co-transfected) into the same cells in conjunction with the IR gene(s). This further gene, comprising the cDNA for a reporter protein, such as firefly luciferase (LUC), controlled by an appropriate hormone responsive promoter containing a hormone response element (HRE). This reporter plasmid functions as a reporter for the transcriptional-modulating activity of the target IR(s). Thus, the reporter acts as a surrogate for the products (mRNA then protein) normally expressed by a gene under control of the target receptor(s) and their native hormone(s).
(§2) Exposing the transfected cells to an agonist ligand compound increases reporter activity in the transfected cells. This activity can be conveniently measured, e.g., by increasing luciferase production and enzymatic activity, which reflects compound-dependent, IR-mediated increases in reporter transcription. […] Increasing concentrations of an antagonist will decrease the reporter signal (e.g., luciferase production). The co-transfection assay is therefore useful to detect both agonists and antagonists of specific IRs. Furthermore, it determines not only whether a compound interacts with a particular IR, but whether this interaction mimics (agonizes) or blocks (antagonizes) the effects of native or synthetic regulatory molecules on target gene expression, as well as the specificity and strength of this interaction.
(§3) The receptor expression plasmid was cotransfected along with a reporter plasmid at 50 ng/well, the internal control plasmid pRS-β-Gal at 50 ng/well and filler DNA, pGEM, at 90 ng/well.
(§4) Six hours after transfection, media was removed and the cells were washed with phosphate-buffered saline (PBS). Media containing compounds of the present invention in concentrations ranging from 10^−10 to 10^−5 M were added to the cells. […] Retinoids were dissolved in dimethylsulfoxide for use in the transcriptional activation assays. Two to three replicates were used for each sample. Transfections and subsequent procedures were performed on a Biomek 1000 automated workstation.
(§5) After 40 hours, the cells were washed with PBS, lysed with a detergent-based buffer and assayed for LUC and β-Gal activities using a luminometer or spectrophotometer, respectively. For each replicate, the normalized response (NR) was calculated as: […]
(§6) The mean and standard error of the mean (SEM) of the NR were calculated. Data were plotted as the response of the compound compared to the reference compounds over the range of the dose-response curve. […] Antagonist activity was determined by testing the amount of LUC expression in the presence of the RXR agonists described above at the EC50 concentration for such known compounds. […] In addition, the efficacy of antagonists was determined as a function (%) of maximal inhibition.

RXRα:RAR heterodimer = target: T3, RXRα:RAR heterodimer (Homo sapiens, UniProt P19793); experiment: RXR:RAR heterodimer co-transfection assay in CV-1 cells; type: cell-based
T3 construct: expressed in transfected cells; host or cells: CV-1 cells
T3 sequence (P19793 1-462): T1 sequence (P19793 1-462)
Procedure: (§7) For determination of agonist activity in the context of the RXR:RAR heterodimer or the RXR:PPARγ heterodimer, media containing compounds of the present invention in concentrations ranging from 10^−10 to 10^−5 M were added to the cells.
(§8) Compounds of the present invention were also tested for the ability to synergize with a PPARγ agonist in the context of an RXR heterodimer. […] Efficacy of the compounds of the present invention in the agonist and synergy assays was calculated as the maximum response obtained over the range of the dose response curve relative to the maximum response obtained by the reference agonist. Antagonist efficacy was determined as a function (%) of maximal inhibition.
However, when RAR is occupied, typical RXR agonists activate the heterodimer. […] To examine the effects of the compounds of the present invention on the transcriptional properties of the RXR:RAR heterodimer, a heterodimer cotransfection assay as described above was employed.

db/db mouse = db/db mouse study (rodent model of Type II diabetes); settings: for inhibition in vivo at 30 mg/kg: Mus musculus, po, 168 h, read-out: db/db mouse Glu. (D7); for db/db mouse Trigs. (D3): plasma triglycerides as % of control values, day 3, 30 mg/kg/day
Crl:CD-1 (ICR)BR mice = experiment: teratogenicity in pregnant Crl:CD-1 (ICR)BR mice; type: in vivo, mouse; settings: for teratogenicity in fetuses: daily oral gavage, gestation days 6-18, L6 30 or 200 mg/kg-day, LG100268 30 or 100 mg/kg-day
Procedure: Teratogenicity is commonly evaluated by examination of fetuses obtained by cesarean section from pregnant mice dosed daily with test compound between gestation days 6-18. We have conducted a blinded study using time-mated female Crl:CD-1® (ICR)BR mice to evaluate potential developmental toxicity (teratogenicity) following administration of L6 at either 30 or 200 mg/kg-day by daily oral gavage for the specified […] of gestation. Each test group consisted of 7-8 pregnant females and produced approx. 100 live fetuses per test group. […] The highest dose of L6 tested (200 mg/kg-day) is twice the dose required to produce maximum antidiabetic activity in db/db mice (100 mg/kg-day).

[2] = system: mice transgenic for the human apolipoprotein A-I gene; experiment: transgenic mice carrying the human apo A-I gene (HDL cholesterol, triglycerides); type: in vivo, mouse
Excerpt: Mice transgenic for the human apolipoprotein A-I gene (obtained from Jackson Laboratory) were used to evaluate PPARalpha mediated effects on HDL cholesterol. The mice were handled as described above for db/db mice, except that they were fed Purina 5001.

RXRα homodimer (RXR:RXR) = target: T4, RXRα homodimer (RXR:RXR) (Homo sapiens, UniProt P19793); experiment: RXR homodimer co-transfection assay in CV-1 cells; type: cell-based; settings: CV-1, read-out: RXR:RAR CV-1 (%) Ag.
T4 sequence (P19793 1-462): T1 sequence (P19793 1-462)
Excerpt: as §1, §2, §3, §4, §5, §6

RXRα:PPARγ heterodimer = target: T5, RXRα:PPARγ heterodimer (Homo sapiens, UniProt P19793); experiment: RXR:PPARγ heterodimer co-transfection assay in CV-1 cells; type: cell-based; settings: Table 2; maximal response in presence of 100 nM BRL49653 relative to BRL49653 alone
T5 construct: expressed in transfected cells; host or cells: CV-1 cells
T5 sequence (P19793 1-462): T1 sequence (P19793 1-462)
T5 sequence (P37231 1-505 partner): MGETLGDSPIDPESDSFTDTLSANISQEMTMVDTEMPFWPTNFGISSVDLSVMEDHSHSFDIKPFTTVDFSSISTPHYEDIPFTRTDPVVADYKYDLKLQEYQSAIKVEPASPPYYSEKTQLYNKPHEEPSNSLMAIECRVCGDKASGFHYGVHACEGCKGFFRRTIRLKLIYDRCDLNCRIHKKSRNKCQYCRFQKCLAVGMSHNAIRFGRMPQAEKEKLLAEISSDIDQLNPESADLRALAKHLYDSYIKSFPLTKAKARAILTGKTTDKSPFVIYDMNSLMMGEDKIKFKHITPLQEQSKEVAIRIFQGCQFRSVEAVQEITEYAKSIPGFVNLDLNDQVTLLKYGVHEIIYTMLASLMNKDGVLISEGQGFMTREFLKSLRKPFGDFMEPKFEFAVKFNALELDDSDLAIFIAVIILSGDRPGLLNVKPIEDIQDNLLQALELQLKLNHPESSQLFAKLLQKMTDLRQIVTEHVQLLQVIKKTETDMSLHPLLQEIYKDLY
Procedure: as §7, §8
To examine the effects of the compounds of the present invention on the transcriptional properties of the RXR:PPARγ, a heterodimer cotransfection assay as described above was employed.

[3] = rodent models of Type II Diabetes

## CC(/C=C/C1=C(c2cc(C(C)C)cc(C(C)C)c2OCCCF)CCC1)=C\C(=O)O [Compound L14]
RXRα; Table 2, from IC50 by Cheng-Prussof equation, tritiated LGD1069, read-out: Bind RXRα Ki
  Ki: 5 nM
[1]; Table 2, first RXR:RAR head (c4), maximal repression (100%) in presence of 32 nM LGD1069 (RXR:RXR), read-out: RXR:RAR CV-1 (%) Antag.
  Emax: 80%
[1]; read-out: RXR:RAR CV-1 (%) Ag.
  Emax: 3%
RXRα:RAR heterodimer; CV-1; read-out: RXR:RAR CV-1 (%) Ag.
  Emax: 2%
db/db mouse
  inhibition in vivo at 30 mg/kg: 45%
  db/db mouse Trigs. (D3): 138%
db/db mouse; [3]
  insulin sensitizing activity with thyroid axis suppression and triglyceride elevations: maintain the desirable insulin sensitizing activity and minimize both the suppression of the thyroid axis and triglyceride elevations

## CCCCOc1c(\C(C)=C/C=C/C(C)=C/C(=O)O)cc(C(C)C)cc1C(C)C [Compound L6]
Crl:CD-1 (ICR)BR mice; L6 at 30 or 200 mg/kg-day compared to vehicle controls
  Corpora lutea, implantation sites, live or dead fetuses, resorptions, fetal weight or sex, external and cranial visceral morphology: no effects were observed
Crl:CD-1 (ICR)BR mice
  teratogenicity in fetuses: no teratogenic effects were observed
db/db mouse; db/db mice
  dose required to produce maximum antidiabetic activity in db/db mice: 100 mg/kg-day
db/db mouse; [3]
  insulin sensitizing activity with thyroid axis suppression and triglyceride elevations: maintain the desirable insulin sensitizing activity and eliminate or reduce both the suppression of the thyroid axis and triglyceride elevations; also recorded: maintain the desirable insulin sensitizing activity and minimize both the suppression of the thyroid axis and triglyceride elevations

## Cc1cc2c(cc1C1(c3ccc(C(=O)O)cn3)CC1)C(C)(C)CCC2(C)C [LG100268, 6-[1-(3,5,5,8,8-pentamethyl-5,6,7,8-tetrahydronaphthalen-2-yl)cyclopropyl]nicotinic acid, reference compound]
[2]
  triglycerides: substantially raise triglycerides
Crl:CD-1 (ICR)BR mice
  teratogenicity in fetuses: Teratogenicity was observed
db/db mouse
  inhibition in vivo at 30 mg/kg: 73%
  db/db mouse Trigs. (D3): 195%
db/db mouse; plasma glucose, % correction relative to lean values, day 14, 100 mg/kg daily oral gavage
  db/db mouse Glu. (D 14): 73%
db/db mouse; plasma triglycerides, % correction relative to lean values, day 14, NC = no change
  db/db mouse Trigs. (D 14): 82%
db/db mouse; [3]
  effect on the thyroid hormone axis: suppress the thyroid hormone axis
  effect on triglycerides: raise triglycerides
  insulin sensitizing activity / effect on glucose: efficacious insulin sensitizers
db/db mouse; total T4 as % of obese control values, day 3, NC = no change
  db/db mouse T4 (D 3): 43%

## CCc1cc(-c2ccsc2/C=C/C(C)=C/C(=O)O)c(OCCCC(F)(F)F)c(C(C)(C)C)c1 [Compound L16]
RXRα
  Ki: 2 nM
RXRα homodimer (RXR:RXR)
  Emax: 1%
RXRα:RAR heterodimer; CV-1, read-out: RXR:RAR CV-1 (%) Ag.
  Emax: 2%
RXRα:PPARγ heterodimer
  PPARγ CV-1 (%) Synergy: 64%
db/db mouse
  inhibition in vivo at 30 mg/kg: 37%
  db/db mouse Trigs. (D3): 79%
db/db mouse; [3]
  insulin sensitizing activity with thyroid axis suppression and triglyceride elevations: maintain the desirable insulin sensitizing activity and minimize both the suppression of the thyroid axis and triglyceride elevations
